We go through 3 molecules from PMC4312198 (Biomaterials, 2014).

The subject of one series is SKOV-3 tumor xenograft. Description: NIRF optical animal imaging. Set-up: species or system mouse. The conditions noted are these: in vivo NIRF after tail vein injection.
Series [1] has as its system SKOV-3 ovarian cancer cells. Briefly: MTS cytotoxicity and combination index, SKOV-3. In kind it is cell-based, human.
Series [2] relates to ES-2 ovarian cancer cells. Briefly: MTS cytotoxicity and combination index, ES-2. The class given is cell-based.
A further series deals with Hela cells. Briefly: MTS cytotoxicity and combination index, Hela. In kind it is cell-based. To be noted: 72 h.
The test system of series [3] is SKOV3 ovarian cancer tumor. Briefly: Tissue biodistribution of Pt. To be noted: 48 h post-injection, CDDP 6 mg/kg i.v. The class given is in vivo, mouse.
The next series relates to mouse models. The conditions noted are these: mouse models ref 37, 38; cited from earlier work.
Series [4] concerns SKOV-3 ovarian cancer xenografts. Description: In vivo anticancer efficacy.
A short description of series [5]: Plasma pharmacokinetics of platinum.
Setting [6] is: Pt in plasma, two compartment model, i.v.

Turning to `CCCCCCCCCCCCCCCCCCN1/C(=C/C=C/C=C/C2=[N+](CCCCCCCCCCCCCCCCCC)c3ccccc3C2(C)C)C(C)(C)c2ccccc21.[O-][Cl+3]([O-])([O-])[O-]` [free DiD], in the series on SKOV-3 tumor xenograft, the “Tumor fluorescence in vivo” value was “very weak tumor fluorescence”.
Take `[NH2][Pt]([NH2])([Cl])[Cl]` [CDDP, Cisplatin]: the “IC50, as CDDP concentration” value in series [1] (SKOV-3, 72 h, first figure of x/y cells) is 1.354 µg/mL; in series [2] (ES2, 72 h, first figure of x/y cells) it was 0.92 µg/mL; in the series on Hela cells (Hela, first figure of x/y cells) it was 2.427 µg/mL. Moreover, in series [3], the “Kidney/tumor ratio of Pt concentrations” value is reported as 4. In series [3], the “Liver/tumor ratio of Pt concentrations” value came to 2. Also, in the series on mouse models, the “Maximum tolerated dose (MTD)” value is at most 4 mg/kg. Moreover, the Medium survival time in series [4] (4 mg/kg CDDP) is recorded as 15 days. Also, in series [4] (4 mg/kg CDDP i.v. day 0, 4, 8, on day 12), the Body weight loss result is recorded as “exceeded 20%”. Also, the “WBC counting vs PBS control” value in series [4] (4 mg/kg CDDP, day 7 after last injection) is “significantly decreased”. Further, in series [4] (4 mg/kg CDDP, died on day 12, 13, 15, 16 and 17), the “Animal death due to severe side effects” value is “all animals”. Also, the figures for the “Pt of injected dose remaining in plasma” value in series [5] (30 min after i.v. injection) and in series [5] (24 h after i.v. injection) were 5% and “less than 1%”, respectively. This molecule also returned a CL2 in series [5] (setting [6]) of 9.3217 mL/min/kg. In series [5] (setting [6]), this molecule returned a t1/2α of 2.64 min. Moreover, in series [5] (mouse, in vivo), the “Clearance rate (Cl) relative to nanotherapeutics, both phases” value is 20–25 fold.
Consider `CC(=O)O[C@H]1C(=O)[C@@]2(C)[C@H]([C@H](OC(=O)c3ccccc3)[C@]3(O)C[C@H](OC(=O)[C@H](O)[C@@H](NC(=O)c4ccccc4)c4ccccc4)C(C)=C1C3(C)C)[C@]1(OC(C)=O)CO[C@@H]1C[C@@H]2O` [PTX, paclitaxel], for which the IC50 in series [1] (Homo sapiens, SK-OV-3, 72 h, read-out: IC50, as PTX concentration) is 0.032 µg/mL; in series [2] (72 h, read-out: IC50, as PTX concentration), 0.055 µg/mL; in the series on Hela cells (Homo sapiens, HeLa, read-out: IC50, as PTX concentration), 0.02 µg/mL.
